Structures can show the parent of a compound that is named as a salt.
Columns and labels:
rats = test: conflict test (modified method of Vogel et al), anxiolytic activity; assay type: in vivo, rat; conditions: oral, 1 hour after administration, control 7.4
Experimental: The conflict test was performed to examine the anxiolytic activity of compounds. A modification of the method of Vogel et al (Psychopharmacology21, 1, 1971) was used.
Rats were deprived of water for 38 hours prior to the first training session (unpunished session). Each animal was placed in a conflict test apparatus. The rat was allowed to drink water through a spout, and the frequency of drinking action within 10 min was counted. Only rats making more than 100 licks progressed to a further 24 hr deprivation of water. Twenty four hours after the unpunished session, the rat was placed again in the test box. The second session (pre-drug punished session) consisting of a 3 min period started when the rat completed 20 licks and received the first electric shock. After every 20 unpunished licks, subsequent licking was punished. Only rats in which the number of receiving the shocks was reduced by at most 25 times during the pre-drug punished session were included in the test.
The compound to be tested was orally administered to each rat. One hour after the administration, the rat was re-placed in the apparatus to be examined. The number of shocks was counted for three minutes. Buspirone, an anxioselective anxiolytic drug, was used as a positive control.
The anti-conflict activity was evaluated to be positive when the number of shocks in the treated group was higher than that in the control group.

male and female rats = test: Acute Toxicity, oral, 7-days observation; assay type: in vivo, rat; conditions: p.o., suspended in 0.5% CMC-Na
Experimental: The compounds (I) suspended in 0.5% CMC-Na aqueous solution were orally administered to male and female rats, and 7-days observation was conducted. ALD (approximate lethal dose) value for Compound No. 1 was 100 mg/kg (p.o.).

5-HT1A receptor [1] = biological target: T1, 5-HT1A receptor (Rattus norvegicus, UniProt P19327); test: biochemical; assay type: binding; conditions: displacement of [3H]8-OH-DPAT, rat brain membranes, 37° C., 10 minutes; test compounds as HCl salt
T1 sequence (P19327 1-422): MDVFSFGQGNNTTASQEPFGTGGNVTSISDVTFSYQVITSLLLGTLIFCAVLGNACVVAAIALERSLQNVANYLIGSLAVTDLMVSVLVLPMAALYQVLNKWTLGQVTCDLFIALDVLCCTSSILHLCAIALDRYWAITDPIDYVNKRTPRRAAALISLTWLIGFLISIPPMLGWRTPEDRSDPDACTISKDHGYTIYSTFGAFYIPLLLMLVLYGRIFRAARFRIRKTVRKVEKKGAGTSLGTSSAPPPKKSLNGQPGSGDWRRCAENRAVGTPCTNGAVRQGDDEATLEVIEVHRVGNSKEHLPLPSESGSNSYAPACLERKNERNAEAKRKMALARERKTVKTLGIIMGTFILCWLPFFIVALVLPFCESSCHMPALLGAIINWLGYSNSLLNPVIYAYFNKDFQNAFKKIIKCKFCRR
Experimental: Thus, rat brain was homogenized in Tris-HCl buffer and centrifuged. The resultant precipitates were homogenized again with Tris-HCl buffer and incubated at 37° C. for ten minutes. The mixture was centrifuged again, and the precipitates were homogenized with Tris-HCl buffer containing pergiline, calcium chloride, and ascorbic acid to obtain a membrane preparation for use in the binding assay.
The preparation was mixed with [3H]8-OH-DPAT and a compound to be tested, and incubated at 37° C. for 10 minutes, filtered with whatman GF/B filter. Radioactivity remaining on the filter was measured by […].
Affinity of the test compound to 5-HT1A receptor is represented by Ki value which is calculated from the following equation. [formula] wherein [L] is the concentration of [3H]8-OH-DPAT, Kd is a dissociation constant, and IC50 is the concentration of test compound requisite for attaining 50% inhibition of the binding of [3H]8-OH-DPAT.

5-HT1A receptor [2] = conditions: in words, literature; cited from earlier work

SMILES | Ki (5-HT1A receptor [1]) [nM] | other results
c1ccc2c(c1)OC[C@H](CNCCCOc1ccc3c(c1)OCO3)O2 [Compound No. 1, 5-[3-{(2S)-(1,4-Benzodioxan-2-ylmethyl) -amino}propoxy[-1,3-benzodioxol hydrochloride] | 0.29 | Frequency of receiving the shocks (rats; 0.05 mg/kg): 20.1 times/3 minutes; ALD (approximate lethal dose) (male and female rats): 100 mg/kg
c1ccc2c(c1)OC[C@H](CNCCCCCOc1ccc3c(c1)OCO3)O2 [Compound No. 7, 5-[5-{(2S)-(1,4-Benzodioxan-2-ylmethyl) -amino}pentyloxy]-1,3-benzodioxol hydrochloride] | 1.84 | –
c1ccc2c(c1)OC[C@@H](CNCCCOc1ccc3c(c1)OCO3)O2 [No. 1 (R)] | 3.9 | Frequency of receiving the shocks (rats; 0.5 mg/kg): 12.5 times/3 minutes
c1ccc2c(c1)OCC(CNCCCOc1ccc3c(c1)OCCO3)O2 (racemic) [No. 2 (dl)] | 2.5 | –
c1ccc2c(c1)OCC(CNCCCOc1ccc3c(c1)OCCCO3)O2 (racemic) [No. 3 (dl)] | 7.6 | –
c1ccc2c(c1)OC[C@H](CNCCCCOc1ccc3c(c1)OCO3)O2 [Compound No. 4, 5-[4-{(2S)-(1,4-Benzodioxan-2-ylmethyl) -amino}butoxy]-1,3-benzodioxol hydrochloride] | 0.91 | –
c1ccc2c(c1)OC[C@H](CNCCCOc1ccc3c(c1)OCCCO3)O2 [compound 3] | – | Frequency of receiving the shocks (rats; 0.2 mg/kg): 18.0 times/3 minutes
c1ccc2c(c1)OCC(CNCCCOc1ccc3c(c1)OCO3)O2 (racemic) [No. 1 (dl)] | 1.6 | Frequency of receiving the shocks (rats; 0.25 mg/kg): 20.9 times/3 minutes
c1ccc2c(c1)OCC(CNCCCOc1cccc3c1OCO3)O2 (racemic) [No. 13 (dl)] | 9.7 | –
O=C1c2ccccc2S(=O)(=O)N1CCCCN1CCN(c2ncccn2)CC1 [Ipsapirone, 2-{4-[4-(2-pyrimidinyl)-1-piperazynyl]butyl}-1,2-benzisothiazol-3-(2H)one-1,1-dioxydehydrochloride] | – | 5-HT1A receptor binding (known compounds) (5-HT1A receptor [2]): 5-HT1A receptor-binding compounds
c1ccc2c(c1)OCC(CNCCCCCOc1ccc3c(c1)OCO3)O2 (racemic) [No. 7 (dl)] | 4.09 | –
c1ccc2c(c1)OCC(CNCCCCOc1ccc3c(c1)OCCCO3)O2 (racemic) [No. 6 (dl)] | 2.9 | –
O=C1C2C3CCC(C3)C2C(=O)N1CCCCN1CCN(c2ncccn2)CC1 (stereo not drawn) [SM-3997, 3aα, 4β, 7β, 7aβ-hexahydro-2-{4-[4-(2-pyrimidinyl)-1-piperazinyl]butyl}-4,7-methan-1H-isoindol-1,3(2H)dione dihydrogen citrate] | – | 5-HT1A receptor binding (known compounds) (5-HT1A receptor [2]): 5-HT1A receptor-binding compounds
c1ccc2c(c1)OC[C@H](CNCCCOc1ccc3c(c1)OCCO3)O2 [compound 2] | – | Frequency of receiving the shocks (rats; 0.2 mg/kg): 21.8 times/3 minutes

Reference: US5234948A, “Optically active alkylenedioxybenzene derivatives and their use in therapy” (Mitsubishi Kasei Corporation, priority 1990, dated 1993)
